Test: Flow properties of co-milled blends, assessed visually
Assay type: physicochemical
Details: visual score between 1 and 6, where 6 is a free-flowing powder
Procedure: Flow properties were assessed visually, and given a score between 1 and 6, where 6 is a free-flowing powder.

- Flow score: 1
Structure (SMILES): O=C(O)c1ccc(-n2nc(-c3ccccc3O)nc2-c2ccccc2O)cc1 [Deferasirox raw material, 4-[3,5-bis(2-hydroxyphenyl)-[1,2,4]triazol-1-yl]benzoic acid]
